Counter-ions that a name gives are not always drawn.
Key:
serotonine (5HT) uptake = experiment: Inhibition of serotonine (5HT) uptake in vitro in impure brain synaptosomes; format: biochemical; conditions: synaptosomes from entire brain of female rat 19 to 21 days old, 14C-5HT 10^-7 M, 37° C., 5 minutes; read-out: I.C. 50, 50% inhibiting concentration of 14C-5HT uptake
Description: The inhibition of serotonine (5HT) uptake was measured in impure synaptosomes prepared from the entire brain of a female rat 19 to 21 days old using the technique of Kannengiesser et al [Biochemical Pharmacology, Vol. 22, (1973) p. 73].

effects of L-dopa = experiment: Potentiation of effects of L-dopa in mice pretreated with iproniazide; format: in vivo; conditions: Mus musculus, ip, one hour before L-dopa 100 mg/kg i.p.; male mice, iproniazide 75 mg/kg i.p. 18 hours before; read-out: ED50 dose which potentiates by 50% the L-dopa effects
Description: The administration of L-dopa to mice pretreated 18 hours previously with iproniazide produced certain number of symptoms; muscular hypertonicity, hyperactivity, agitation crying, aggressiveness, salivation and exophthalmy. The intensity of these effects is potentiated by administration of an antidepressant one hour before the administration of L-dopa. Male mice received intraperitoneally 75 mg/kg of iproniazide 18 hours before the start of the test and the tested product was intraperitoneally administered in aqueous solution in increasing doses. One hour later, L-dopa was intraperitoneally administered at a dose of 100 mg/kg and the different symptoms were observed 15 and 30 minutes later. They were evaluated on a scale of 0 to 3 for each animal and the totals for each dose were determined.

[1] = Acute toxicity, intraperitoneal; conditions: mouse, in vivo, ip; mice, i.p., determined 48 hours later; read-out: DL50 dose which kills 50% of mice
Description: The DL50 dose which kills 50% of mice after intraperitoneal administration of the tested compound was determined 48 hours later and the DL50 for the compounds is reported in Table III.

[2] = tested on: effects of monoamine oxidase inhibitor (nialamide); experiment: Potentiation of effects of monoamine oxidase inhibitor (nialamide) in mice, actimetric measurements; format: in vivo; parameters: key: Potentiation of the effects of nial amide for the tested product was expressed in increasing number of + sign for a determined dose in mg/kg; conditions: nialamide 100 mg/kg i.p. 30 minutes before, actimetric values every 30 minutes for 6 hours
From the text: The administration of a monoamine oxidase inhibitor to mice induces a hyperactive movement of the animals which is able to be potentiated by an antidepressant. […] Potentiation of the effects of nial amide for the tested product was expressed in increasing number of + sign for a determined dose in mg/kg.

Row | SMILES | IC50 (serotonine (5HT) uptake) | ED50 (effects of L-dopa) | LD50 at 48 h [1] | Potentiation of Nialamide ([2]; 5 mg/kg i.p.) | Potentiation of Nialamide ([2]; 20 mg/kg i.p.)
1 | CNCC1C=Cc2cc(O)ccc2CC1.Cl (stereo not drawn) [Example 6, 7-methylaminomethyl-6,7-dihydro [5H] benzocycloheptene-2-ol-hydrochloride] | 980 nM | 20 mg/kg | 75 mg/kg | + | +
2 | CNCC1C=Cc2cc(N)ccc2CC1 (stereo not drawn) [Example 4, di-(N-methyl-2-amino-6,7-dihydro [5H]benzocycloheptene-7-methanamine) fumarate] | 6800 nM | – | 100 mg/kg | – | –
3 | CNCC1C=Cc2cc(OC)ccc2CC1.Cl (stereo not drawn) [Example 5, N-methyl-2-methoxy-6,7-dihydro [5H] benzocycloheptene-7-methanamine hydrochloride] | 1400 nM | 50 mg/kg | 100 mg/kg | – | –
4 | CN(C)CC1C=Cc2cc([N+](=O)[O-])ccc2CC1 (stereo not drawn) [1 - 2] | 630 nM | – | 150 mg/kg | + | +
5 | CNCC1C=Cc2cc([N+](=O)[O-])ccc2CC1 (stereo not drawn) [Example 3, N-methyl-2-nitro-6,7-dihydro [5H] benzocycloheptene-7-methanamine hydrochloride] | 590 nM | 20 mg/kg | 100 mg/kg | – | +

From US4117164A, “Aminomethyl-benzocycloheptenes and method of use” (Roussel Uclaf, priority 1976, dated 1978)
